Experimental data as given in ChEMBL document CHEMBL5316313, “Discovery of Novel 3-Phenylpiperidine Derivatives Targeting the β-Catenin/B-Cell Lymphoma 9 Interaction as a Single Agent and in Combination with the Anti-PD-1 Antibody for the Treatment of Colorectal Cancer” (J Med Chem, 2023).

How the values were obtained:
[1] = molecular target: T1, beta-catenin-B-cell lymphoma 9 protein complex (Homo sapiens, UniProt P35222); assay: Inhibition of N-terminal His6-tagged full-length recombinant beta-catenin (1 to 781 residues) (unknown origin) expressed in Escherichia coli BL21 DE3/N-terminal FAM tagged BCL9 HD2(350 to 375 residues) (unknown origin) protein-protein interaction assessed as inhibition constant incubated for 3 hrs by competitive fluorescence polarization assay
T1 sequence (P35222 whole entry): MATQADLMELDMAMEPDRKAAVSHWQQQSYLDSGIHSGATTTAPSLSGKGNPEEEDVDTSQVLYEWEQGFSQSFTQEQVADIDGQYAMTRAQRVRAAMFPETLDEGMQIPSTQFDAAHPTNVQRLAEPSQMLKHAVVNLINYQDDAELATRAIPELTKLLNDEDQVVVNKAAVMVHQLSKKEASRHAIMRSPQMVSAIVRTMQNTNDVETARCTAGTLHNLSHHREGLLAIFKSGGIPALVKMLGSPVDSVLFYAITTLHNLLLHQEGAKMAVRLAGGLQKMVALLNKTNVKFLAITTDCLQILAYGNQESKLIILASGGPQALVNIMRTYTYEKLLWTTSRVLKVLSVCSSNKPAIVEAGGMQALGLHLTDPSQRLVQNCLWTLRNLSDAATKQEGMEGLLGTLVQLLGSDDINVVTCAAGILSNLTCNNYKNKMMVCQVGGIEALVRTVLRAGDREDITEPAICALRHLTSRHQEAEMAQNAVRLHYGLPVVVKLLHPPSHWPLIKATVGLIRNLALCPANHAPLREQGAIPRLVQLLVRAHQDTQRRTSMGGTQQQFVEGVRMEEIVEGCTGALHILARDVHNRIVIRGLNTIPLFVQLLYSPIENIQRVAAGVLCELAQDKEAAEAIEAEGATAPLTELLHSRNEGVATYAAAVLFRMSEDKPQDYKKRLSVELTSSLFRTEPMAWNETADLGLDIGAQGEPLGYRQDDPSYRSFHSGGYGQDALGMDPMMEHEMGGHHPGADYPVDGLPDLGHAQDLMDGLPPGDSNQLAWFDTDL
T1 sequence (O00512 whole entry): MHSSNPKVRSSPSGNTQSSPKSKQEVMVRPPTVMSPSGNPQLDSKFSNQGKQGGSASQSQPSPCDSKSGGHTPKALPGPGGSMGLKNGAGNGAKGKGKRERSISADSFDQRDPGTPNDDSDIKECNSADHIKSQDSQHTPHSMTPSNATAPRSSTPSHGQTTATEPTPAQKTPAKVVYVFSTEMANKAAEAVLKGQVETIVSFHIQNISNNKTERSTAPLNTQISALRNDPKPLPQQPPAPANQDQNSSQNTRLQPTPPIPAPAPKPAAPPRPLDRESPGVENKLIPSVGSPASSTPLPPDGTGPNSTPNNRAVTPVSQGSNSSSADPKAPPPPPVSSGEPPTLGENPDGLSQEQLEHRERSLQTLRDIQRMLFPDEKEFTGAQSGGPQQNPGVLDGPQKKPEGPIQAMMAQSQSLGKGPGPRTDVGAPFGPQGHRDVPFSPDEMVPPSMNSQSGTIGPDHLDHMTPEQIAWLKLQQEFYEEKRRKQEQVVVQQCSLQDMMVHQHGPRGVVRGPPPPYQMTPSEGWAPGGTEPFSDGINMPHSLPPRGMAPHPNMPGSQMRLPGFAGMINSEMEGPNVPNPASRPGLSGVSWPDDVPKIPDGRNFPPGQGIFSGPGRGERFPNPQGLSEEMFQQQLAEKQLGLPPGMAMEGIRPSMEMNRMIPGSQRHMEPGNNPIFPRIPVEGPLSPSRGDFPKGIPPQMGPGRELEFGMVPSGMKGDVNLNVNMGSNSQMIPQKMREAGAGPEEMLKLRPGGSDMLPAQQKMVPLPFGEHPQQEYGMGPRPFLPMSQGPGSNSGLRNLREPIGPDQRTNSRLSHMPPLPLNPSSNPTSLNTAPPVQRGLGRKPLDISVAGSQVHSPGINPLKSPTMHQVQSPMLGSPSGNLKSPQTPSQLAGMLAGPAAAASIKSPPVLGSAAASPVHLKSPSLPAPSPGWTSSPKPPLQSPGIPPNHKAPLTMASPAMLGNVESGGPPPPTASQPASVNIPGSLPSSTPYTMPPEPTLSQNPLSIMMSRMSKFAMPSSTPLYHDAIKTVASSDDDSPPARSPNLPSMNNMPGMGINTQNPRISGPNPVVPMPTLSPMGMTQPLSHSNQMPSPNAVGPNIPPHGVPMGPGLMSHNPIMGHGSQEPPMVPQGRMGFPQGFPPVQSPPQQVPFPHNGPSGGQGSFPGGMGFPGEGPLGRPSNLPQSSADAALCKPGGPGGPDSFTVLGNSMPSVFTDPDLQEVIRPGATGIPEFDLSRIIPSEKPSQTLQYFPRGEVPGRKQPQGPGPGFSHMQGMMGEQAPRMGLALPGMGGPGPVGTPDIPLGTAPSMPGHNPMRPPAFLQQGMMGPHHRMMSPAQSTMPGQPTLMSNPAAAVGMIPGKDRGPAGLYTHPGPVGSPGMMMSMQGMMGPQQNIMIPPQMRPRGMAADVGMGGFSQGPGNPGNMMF

[2] = molecular target: T1, beta-catenin-B-cell lymphoma 9 protein complex; assay: Inhibition of beta-catenin/BCL9 protein-protein interaction in Wnt-dependent human HCT-116 cells assessed as reduction in Axin2 expression level by qRT-PCR assay; format: cell-based
[3] = Microsomal stability in mouse liver microsomes assessed as half life at […] and measured upto 60 mins by LC-MS/MS analysis; format: ADME, Microsome
[4] = Microsomal stability in human liver microsomes assessed as half life at […] and measured upto 60 mins by LC-MS/MS analysis; format: ADME, Microsome
[5] = Microsomal stability in mouse liver microsomes assessed as intrinsic clearance at […] and measured upto 60 mins by LC-MS/MS analysis; format: ADME, Microsome; details: read-out: CLH
[6] = Microsomal stability in human liver microsomes assessed as intrinsic clearance at […] and measured upto 60 mins by LC-MS/MS analysis; format: ADME, Microsome; details: read-out: CLH
[7] = molecular target: T1, beta-catenin-B-cell lymphoma 9 protein complex; assay: Inhibition of beta-catenin (unknown origin)/human BCL9 (350 to 375 residues) protein-protein interaction assessed as inhibition constant by AlphaScreen assay; format: protein-complex assay
[8] = molecular target: T1, beta-catenin-B-cell lymphoma 9 protein complex; assay: Inhibition of full-length recombinant beta-catenin (1 to 781 residues) (unknown origin)/N-terminal biotinylated BCL9-HD2 (unknown origin) protein-protein interaction assessed as inhibition constant incubated for 90 mins by AlphaScreen assay; format: protein-complex assay
[9] = molecular target: T1, beta-catenin-B-cell lymphoma 9 protein complex; assay: Inhibition of FLAG tagged human beta-catenin/FLAG-tagged human BCL9 HD2 (343 to 396 residues) expressed in Escherichia coli BL21 protein-protein interaction assessed as inhibition constant by ELISA

SMILES	IC50 [1] [µM]	IC50 [2] [µM]	further results
COc1ccc(COC(=O)N2CCCC(c3cccc(OC(C)(C)C(=O)O)c3)C2)cc1 (stereo not given)	5.27	–	–
COc1ccc(COC(=O)N2CCCC(c3cccc(OC(C)(C)C(=O)O)c3)C2)cc1OC (stereo not given)	6.8	–	–
Cc1ccc(-c2cccc(S(=O)(=O)N3CCCC(c4cccc(OC(C)(C)C(=O)O)c4)C3)c2)cc1C (stereo not given)	4.63	–	–
CC(C)(Oc1cccc(C2CCCN(S(=O)(=O)c3cccc(C4CCCCC4)c3)C2)c1)C(=O)O (stereo not given)	> 10	–	–
CC(C)(Oc1cccc(C2CCCN(C(=O)OCc3ccc4ccccc4c3)C2)c1)C(=O)O (stereo not given)	> 10	–	–
CC(C)(Oc1cccc(C2CCCN(S(=O)(=O)c3cccc(-c4ccc(C(C)(C)C)cc4)c3)C2)c1)C(=O)O (stereo not given)	3.14	1.31	–
CC(C)c1ccc(-c2cccc(S(=O)(=O)N3CCC[C@@H](c4cccc(OC(C)(C)C(=O)NS(=O)(=O)c5ccc(C(F)(F)F)cc5)c4)C3)c2)cc1	–	–	half-life [3]: 14.8 min; half-life [4]: 69.3 min; microsomal CLint [5]: 93.4 µL/min/mg; microsomal CLint [6]: 20 µL/min/mg
COc1ccc(S(=O)(=O)NC(=O)C(C)(C)Oc2cccc(C3CCCN(S(=O)(=O)c4cccc(-c5ccc(C(C)C)cc5)c4)C3)c2)cc1 (stereo not given)	4.47	–	–
CC(C)c1cccc(-c2cccc(S(=O)(=O)N3CCCC(c4cccc(OC(C)(C)C(=O)O)c4)C3)c2)c1 (stereo not given)	4.27	–	–
Cc1ccc(COC(=O)N2CCCC(c3cccc(OC(C)(C)C(=O)O)c3)C2)cc1 (stereo not given)	6.7	–	–
CC(C)c1ccc(-c2cccc(S(=O)(=O)N3CCCC(c4cccc(OC(C)(C)C(=O)NS(=O)(=O)c5ccccc5)c4)C3)c2)cc1 (stereo not given)	1.18	1.1	half-life [3]: 19.8 min; half-life [4]: 8.67 min; microsomal CLint [5]: 70 µL/min/mg; microsomal CLint [6]: 160 µL/min/mg
COC(=O)C(C)(C)Oc1cccc(C2CCCN(C(=O)OCc3ccc(C(C)C)cc3)C2)c1 (stereo not given)	5.21	–	–
CC(C)c1ccc(CNC(=O)N2CCCC(c3cccc(OC(C)(C)C(=O)O)c3)C2)cc1 (stereo not given)	8.62	–	–
O=C(Nc1ccc(O[C@@H]2CCNC2)c(-c2ccc(F)cc2)c1)c1ccc(O[C@H]2CCNC2)c(-c2ccc(F)c(F)c2)c1	–	–	Ki [7]: 2.1 µM
CC(C)c1ccc(-c2cccc(S(=O)(=O)N3CCCC(c4cccc(OC(C)(C)C(=O)NS(=O)(=O)c5cccc(C#N)c5)c4)C3)c2)cc1 (stereo not given)	1.27	1.13	–
CC(C)(Oc1cccc(C2CCCN(S(=O)(=O)c3cccc(-c4ccc(F)c(F)c4)c3)C2)c1)C(=O)O (stereo not given)	> 10	–	–
CC(C)c1ccc(-c2cccc(S(=O)(=O)N3CCCC(c4cccc(OC(C)(C)C(=O)NS(=O)(=O)c5cccc(C(F)(F)F)c5)c4)C3)c2)cc1 (stereo not given)	2.47	1.33	–
CC(C)c1ccc(-c2cccc(S(=O)(=O)N3CCC[C@H](c4cccc(OC(C)(C)C(=O)NS(=O)(=O)c5ccc(C(F)(F)F)cc5)c4)C3)c2)cc1	–	–	half-life [3]: 37.7 min; half-life [4]: 21.8 min; microsomal CLint [5]: 36.8 µL/min/mg; microsomal CLint [6]: 63.6 µL/min/mg
CC(C)c1ccc(-c2cccc(C(=O)N3CCCC(c4cccc(OC(C)(C)C(=O)O)c4)C3)c2)cc1 (stereo not given)	> 10	–	–
CC(=O)Nc1ccc(S(=O)(=O)NC(=O)C(C)(C)Oc2cccc(C3CCCN(S(=O)(=O)c4cccc(-c5ccc(C(C)C)cc5)c4)C3)c2)cc1 (stereo not given)	0.89	2.93	–

SMILES	IC50 [1] [µM]	IC50 [2] [µM]	further results
CC(C)c1ccc(/C=C/C(=O)N2CCCC(c3cccc(OC(C)(C)C(=O)O)c3)C2)cc1 (stereo not given)	5.39	–	–
CC(C)c1ccc(-c2cccc(S(=O)(=O)N3CCCC(c4cccc(OC(C)(C)C(=O)NS(=O)(=O)c5ccc(OC(F)(F)F)cc5)c4)C3)c2)cc1 (stereo not given)	1	1.19	–
CC(C)(Oc1cccc(C2CCCN(C(=O)OCc3ccc(F)c(F)c3)C2)c1)C(=O)O (stereo not given)	4.32	–	–
CC(C)c1ccc(-c2cccc(S(=O)(=O)N3CCCC(c4cccc(OC(C)(C)C(=O)O)c4)C3)c2)cc1 (stereo not given)	1.58	2.26	–
CC(C)c1ccc(COC(=O)N2CCC(c3cccc(OC(C)(C)C(=O)O)c3)CC2)cc1	4.86	–	–
CC1CCCN(CCCNC(=O)C2=Cc3sc4c(c3CS2)CCCC4)C1 (stereo not given)	–	–	Ki [8]: 9 µM
CC(C)(Oc1cccc(C2CCCN(C(=O)OCc3ccc4ncccc4c3)C2)c1)C(=O)O (stereo not given)	> 10	–	–
CC(C)c1ccc(-c2cccc(S(=O)(=O)N3CCCC(c4cccc(OC(C)(C)C(=O)NS(=O)(=O)c5ccc(C(F)(F)F)cc5Cl)c4)C3)c2)cc1 (stereo not given)	1.18	1.36	–
Cc1ccc(COC(=O)N2CCCC(c3cccc(OC(C)(C)C(=O)O)c3)C2)cc1C (stereo not given)	4.2	–	–
CC(C)c1ccc(-c2cccc(S(=O)(=O)N3CCCC(c4cccc(OC(C)(C)C(=O)NCc5ccccc5)c4)C3)c2)cc1 (stereo not given)	3.76	10	–
CC(C)c1ccc(-c2cccc(S(=O)(=O)N3CCCC(c4cccc(OC(C)(C)C(=O)NS(=O)(=O)c5ccc(C#N)cc5)c4)C3)c2)cc1 (stereo not given)	1.86	1.49	–
CC(C)(Oc1cccc(C2CCCN(C(=O)OCc3ccc(F)cc3F)C2)c1)C(=O)O (stereo not given)	5.19	–	–
CC(C)(Oc1cccc(C2CCCN(S(=O)(=O)c3cccc(-c4ccsc4)c3)C2)c1)C(=O)O (stereo not given)	4	–	–
CC(C)(Oc1cccc(C2CCCN(S(=O)(=O)c3cccc(-c4ccccc4)c3)C2)c1)C(=O)O (stereo not given)	8.3	–	–
CC(C)(Oc1cccc(C2CCCN(S(=O)(=O)c3cccc(-c4cccs4)c3)C2)c1)C(=O)O (stereo not given)	> 10	–	–
CC(C)(Oc1cccc(C2CCCN(C(=O)OCC3CCCCC3)C2)c1)C(=O)O (stereo not given)	3.9	> 10	–
CC(C)c1cc2c(c(O)c1O)[C@@]1(C(=O)O)CCCC(C)(C)[C@@H]1CC2 [CARNOSIC ACID]	–	–	Ki [9]: 3.3 µM
CC(C)(Oc1cccc(C2CCCN(C(=O)OCc3ccc(C(C)(C)C)cc3)C2)c1)C(=O)O (stereo not given)	> 10	–	–
CC(C)c1ccc(-c2cccc(S(=O)(=O)N3CCCC(c4cccc(OC(C)(C)C(=O)NS(=O)(=O)c5cccs5)c4)C3)c2)cc1 (stereo not given)	–	–	half-life [3]: 5.75 min; half-life [4]: 6.17 min; microsomal CLint [5]: 241 µL/min/mg; microsomal CLint [6]: 225 µL/min/mg
CC(C)(Oc1cccc(C2CCCN(S(=O)(=O)c3cccc(-c4ccc5ccsc5c4)c3)C2)c1)C(=O)O (stereo not given)	3.27	3.58	–
